The nature of experiment [1]: microbe, parasite or virus in culture. As to conditions: Mycobacterium avium, ATCC 700898.
Experiment [2] can be described thus: Antimicrobial activity against Mycobacterium avium subsp. hominissuis ATCC 700898 infected in human THP1 cells in presence of 20% FBS. It is filed as functional, cell-based. As to conditions: ATCC 700898, THP-1.
Experiment [3] is described as follows: microbe, parasite or virus in culture. As to conditions: Mycobacterium avium, ATCC 700898, 168 h.
Experiment [4] can be described thus: Antimicrobial activity against Mycobacterium avium subsp. hominissuis ATCC 700898 infected in human THP1 cells in presence of 2% FBS. Type of experiment: functional, cell-based. As to conditions: ATCC 700898, THP-1.
A short description of experiment [5]: Antimicrobial activity against Mycobacterium avium subsp. hominissuis ATCC 700898 infected in human THP1 cells in presence of 10% FBS. It is filed as functional, cell-based. As to conditions: ATCC 700898, THP-1.
Experiment [6] concerns Mycobacterium avium. Nature of the experiment: Antimicrobial activity against Mycobacterium avium by CLSI method.
Experiment [7] is described as follows: microbe, parasite or virus in culture. As to conditions: Mycobacterium avium, ATCC 700898, 168 h. This is another data set of the same source.

Values after ≈ are worked out from the molar mass of the structure shown.

On to `COc1c(N2C[C@@H]3CCCN[C@@H]3C2)c(F)cc2c(=O)c(C(=O)O)cn(C3CC3)c12` [MOXIFLOXACIN], for which the MIC in experiment [1] and in experiment [6] was 1 µg/mL (≈ 2.49 µM) in each case. Besides, the EC50 (commonly the midpoint of the concentration-response curve) was 5.21 µg/mL in experiment [2]; ≥ 32 µg/mL in experiment [3]; 8.09 µg/mL in experiment [4]; 5.07 µg/mL in experiment [5]; 8.24 µg/mL (≈ 20.5 µM) in experiment [7].

(Values after ChEMBL document CHEMBL1255498, “Moxifloxacin pharmacokinetics/pharmacodynamics and optimal dose and susceptibility breakpoint identification for treatment of disseminated Mycobacterium avium infection” (Antimicrob Agents Chemother, 2010).)
